Measurements taken from patent US7897815B2, “Hexafluoroisopropanol derivatives” (Hoffmann-La Roche Inc., priority 2004, dated 2011).

Legend:
[1] = target: T1, human LXR alpha (GST-LXRα-LBD) (Homo sapiens, UniProt Q13133); assay: Radioligand binding assay (SPA), LXR alpha; conditions: GST-LXRα-LBD on SPA beads, read-out: LXRalpha Binding IC50
T1 construct: human LXR alpha (aa 164 to 447); made in house; host or cells: E. coli BL21 (pLysS)
T1 sequence (Q13133 164-447): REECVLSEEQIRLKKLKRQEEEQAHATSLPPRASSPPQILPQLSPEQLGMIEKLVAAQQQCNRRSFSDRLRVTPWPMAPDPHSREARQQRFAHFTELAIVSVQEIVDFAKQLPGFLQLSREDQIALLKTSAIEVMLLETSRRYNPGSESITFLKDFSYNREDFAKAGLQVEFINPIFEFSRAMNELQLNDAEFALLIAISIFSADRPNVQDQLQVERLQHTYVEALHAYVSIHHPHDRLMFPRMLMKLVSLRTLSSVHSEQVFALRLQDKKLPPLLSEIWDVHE
Protocol: The following tests were carried out in order to determine the activity of the compounds of the present invention. Background information on the performed assays can be found in: Nichols J S et al. “Development of a scintillation proximity assay for peroxisome proliferator-activated receptor gamma ligand binding domain”, Anal Biochem. 1998, 257: 112-119.
Mammalian expression vectors were constructed to express full-length human LXR alpha and LXR beta. Bacterial expression vectors were constructed to produce glutathione-s-transferase (GST) fused to the ligand binding domains (LBD) of human LXR alpha (aa 164 to 447) and human LXR beta (aa 155 to 460). To accomplish this, the portions of the sequences encoding the LBDs were amplified from full-length clones by PCR and then subcloned into the plasmid vectors. Final clones were verified by DNA sequence analysis (Willy et al., Genes Dev. 1995, 9:1033-45; Song et al., Proc Natl Acad Sci USA. 1994, 91:10809-13).
Induction, expression, and purification of GST-LBD fusion proteins were performed in E. coli strain BL21 (pLysS) cells by standard methods (Ref: Current Protocols in Molecular Biology, Wiley Press, edited by Ausubel et al).
LXR alpha and LXR beta receptor binding were assayed in buffer consisting of 50 mM HEPES, pH 7.4, 10 mM NaCl, 5 mM MgCl2. For each 96-well reaction, 500 ng of GST-LXRα-LBD or 700 ng of GST-LXR beta-LBD fusion proteins were bound to 80 μg or 40 μg SPA beads (Pharmacia Amersham) respectively, in a final volume of 50 μl by shaking. The resulting slurry was incubated for 1 h at RT and centrifuged for 2 min at 1300×g. The supernatant containing unbound protein was removed, and the semi-dry pellet containing the receptor-coated beads was re-suspended in 50 μl of buffer. […] All binding assays were performed in 96-well plates and the amount of bound ligand was measured on a Packard TopCount using OptiPlates (Packard). Dose response curves were measured within a range of concentration from 10^−10 M to 10^−4 M.

[2] = target: T2, human LXR beta (GST-LXR beta-LBD) (Homo sapiens, UniProt P55055); assay: Radioligand binding assay (SPA), LXR beta; conditions: GST-LXR beta-LBD on SPA beads, read-out: LXRbeta Binding IC50
T2 construct: human LXR beta (aa 155 to 460); made in house; host or cells: E. coli BL21 (pLysS)
T2 sequence (P55055 155-460): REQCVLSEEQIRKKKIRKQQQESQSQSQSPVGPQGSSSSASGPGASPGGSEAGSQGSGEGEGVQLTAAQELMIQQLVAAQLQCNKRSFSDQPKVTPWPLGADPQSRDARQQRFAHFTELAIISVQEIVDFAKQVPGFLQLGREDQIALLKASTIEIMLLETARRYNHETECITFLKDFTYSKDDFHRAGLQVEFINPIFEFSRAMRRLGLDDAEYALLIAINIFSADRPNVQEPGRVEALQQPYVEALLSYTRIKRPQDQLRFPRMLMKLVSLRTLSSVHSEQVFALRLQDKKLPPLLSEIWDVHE
Protocol: The following tests were carried out in order to determine the activity of the compounds of the present invention.
Mammalian expression vectors were constructed to express full-length human LXR alpha and LXR beta. […] To accomplish this, the portions of the sequences encoding the LBDs were amplified from full-length clones by PCR and then subcloned into the plasmid vectors.
LXR alpha and LXR beta receptor binding were assayed in buffer consisting of 50 mM HEPES, pH 7.4, 10 mM NaCl, 5 mM MgCl2. […] The resulting slurry was incubated for 1 h at RT and centrifuged for 2 min at 1300×g. The supernatant containing unbound protein was removed, and the semi-dry pellet containing the receptor-coated beads was re-suspended in 50 μl of buffer. Radioligand (eg. 100,000 dpm of (N-(2,2,2-trifluoroethyl)-N-[4-(2,2,2-trifluoro-1-hydroxy-1-trifluoromethylethyl)-phenyl]-benzenesulfonamide)) was added, and the reaction incubated at RT for 1 h in the presence of test compounds, and then scintillation proximity counting was performed. All binding assays were performed in 96-well plates and the amount of bound ligand was measured on a Packard TopCount using OptiPlates (Packard). Dose response curves were measured within a range of concentration from 10^−10 M to 10^−4 M.

Compound: CCN(Cc1ccccc1)c1ccc(C(O)(C(F)(F)F)C(F)(F)F)cc1 [Example 1, 2-[4-(benzyl-ethyl-amino)-phenyl]-1,1,1,3,3,3-hexafluoro-propan-2-ol]
- IC50 [1]: 0.046 µM

Compound: CCN(Cc1cscn1)c1ccc(C(O)(C(F)(F)F)C(F)(F)F)cc1Cl [Example 18, 2-{3-chloro-4-[ethyl-(thiazol-4-ylmethyl)-amino]-phenyl}-1,1,1,3,3,3-hexafluoro-propan-2-ol]
- IC50 [1]: 0.017 µM

Compound: CCN(Cc1nc(-c2cccc(C(=O)OC)c2)oc1C)c1ccc(C(O)(C(F)(F)F)C(F)(F)F)cc1 [Example 30, 3-[4-({ethyl-[4-(2,2,2-trifluoro-1-hydroxy-1-trifluoromethyl-ethyl)-phenyl]-amino}-methyl)-5-methyl-oxazol-2-yl]-benzoic acid methyl ester]
- IC50 [2]: 0.0057 µM
- IC50 [1]: 0.0027 µM
